In patent US6444144B1, “Polyethoxylated ascorbic acid derivatives as a novel antioxidant and process for preparing thereof” (LG Chemical Ltd., priority 1998, dated 2002):
Like-named read-outs stand apart in the source and are kept apart here.

Key:
[1] = Radical scavenging effect (DPPH method); conditions: for IC50: DPPH, absorption at 517 nm; for radical scavenging effect (in words): comment on Table 2, DPPH, 1 hour and 24 hours
Description: Measurement was made using the 1,1-diphenyl-2-picrylhydrazyl (DPPH) method [Blois, M. S. Nature, 1958, 181, 1190]. DPPH is a relatively stable radical with the maximum absorption at 517 nm. The absorption at this wavelength disappears upon removal of the radical. DPPH was purchased from Sigma Co. and dissolved in methanol to make the concentration of 0.5 mM.
First, 100 μl of each solution (10^−l to 10^−6 M) of the individual compounds prepared in examples 1 to 4 were placed in each well of a 96-well plate. After adding 100 μl of DPPH solution and standing the reaction mixture at the room temperature, the absorption at 517 nm was measured for each well using a micro plate reader (BioTeck EL-340). A blank solution was prepared to contain 100 μl of methanol instead of the above compounds. The concentration of the individual compounds was denoted by IC50 at the time when the absorption of the test sample becomes a half of that of the blank solution. The absorption was measured at 1 hour and at 24 hours after treatment.

[2] = molecular target: Tyrosinase extracted from mushrooms; assay: Inhibitory activity against tyrosinase; assay type: biochemical; conditions: L-tyrosine substrate, DOPA cofactor, pH 6.8, 37° C., 10 minutes, absorbance at 475 nm
Description: Tyrosinase extracted from mushrooms was purchases from Sigma Co. First, L-tyrosine as a substrate was dissolved in a 0.05M phosphate buffer solution (pH 6.8) to have a concentration of 1.5 mM. 0.01 ml of this solution was added to a 0.3 ml spectrophotometer cuvette, followed by 0.01 ml of 0.06 mM dihydroxyphenylalamine (DOPA) as a cofactor. To this solution were added compounds of Formulas (II) and (III) and the phosphate buffer solution to have the total volume of 0.1 ml. […] Meanwhile, a blank was prepared by adding only 0.1 ml of the phosphate buffer solution. The reaction was performed at 37° C. for 10 minutes. The absorbance was measured at 475 nm with a spectrophotometer (Beckman DU-7500) to determine the inhibitory rate against tyrosinase. IC50 value was determined as the concentration of the inhibitor whose inhibitory rate against the enzyme amounts to 50%. Inhibitory Rate(%)=[(A−B)/A]×100 wherein A is the absorbance at 475 nm in a solution containing no inhibitor, and B is the absorbance at 475 nm in a solution containing an inhibitor.

[3] = female, naked mouse, 24 h, 5 % (w/v), pH 7.4
Description: More specifically, a dorsal skin of 8-weeks aged female mouse (naked mouse) was cut off and then 5% (w/v) solution of the test sample was applied in an amount of 50 μl to the skin having a size of 1.7 cm^2. Using the apparatus for measuring transdermal absorption test (Franz cell), after 24 hours, the absorbed material was extracted from 7 ml of the receptor solution [50 mM PBS buffer solution (pH=7.4) containing 2% Vol PO20 polyethylene oleyl ether (HLB=16)] and then quantitatively analyzed by HPLC.

[4] = 24 hours after treatment, read-out: Radical Scavenging Effect IC50 After 24 hrs.
[5] = read-out: Radical Scavenging Effect IC50 After 1 hour, 1 hour after treatment

Compound | IC50 [1, 4] [mM] | IC50 [1, 5] [mM] | IC50 [2] [mM] | Absorption Rate (%) [3] [%] | Total Transdermal Absorption Amount [3] [mg] | radical scavenging effect (in words) [1]
2-O-PEG550-Ascorbic Acid | 4.2 | 7.9 | 7.06 | – | – | potent radical scavenging effect in a short time
3-O-PEG550-ascorbic acid | – | – | 7.06 | – | – | an increase in the radical scavenging effect with an elapse of time
O=C1O[C@H]([C@@H](O)CO)C(O)=C1O [Ascorbic acid] | 3.4 | 3.4 | 0.47 | 1.2 | 0.03 | –

Further compounds by falling IC50 [2], results first:

IC50 [1, 4] [mM] | IC50 [1, 5] [mM] | IC50 [2] [mM] | Absorption Rate (%) [3] [%] | Total Transdermal Absorption Amount [3] [mg] | Compound | radical scavenging effect (in words) [1]
5.9 | 78.7 | 9.8 | – | – | 3-O-PEG350-Ascorbic Acid | an increase in the radical scavenging effect with an elapse of time
9.8 | 9.8 | 9.8 | – | – | CCOC1=C(O)C(=O)O[C@@H]1[C@@H](O)CO [3-O-Ethyl-ascorbic acid, reference compound] | –
5.9 | 7.9 | 1.97 | – | – | 2-O-PEG350-Ascorbic Acid | potent radical scavenging effect in a short time
